From patent US10975126B1 (priority 2020, dated 2021)
No end group written: not given here.

Tested on: MERS-CoV
Type: cell-based, MERS-CoV (CoV/KOR/KNIH/002_05_2015) in Vero cells

SLTQINWTLLDLTYEMESLQQVVKALNEYYIDLKEL [Peptide 5]
inhibition of MERS-CoV / decrease in plaque formation (in words): strong inhibition
